The nature of one data set: physchem. The data set is classed as physicochemical. Particulars: pH 7.5. In short, it runs like this:
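Peptide at 250 μM in 10 mM HEPES pH 7.5 with 1 μM Thioflavin T, incubated at 37° C with 960 rpm orbital shaking. ThT fluorescence (ex 444/em 485 nm) read every 20 min; lag-time (t0−2τ) and kapp (1/τ) from curve fit. Recovery is post-assay supernatant peptide by RP-HPLC as % of initial.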

The target in a further data set is T1, human glucagon receptor (Homo sapiens, UniProt P47871).
T1 construct: expressed in transfected cells; host or cells: BHK cells, clone BHK hGCGR A3*25; isolated membranes
T1 sequence (P47871 26-477): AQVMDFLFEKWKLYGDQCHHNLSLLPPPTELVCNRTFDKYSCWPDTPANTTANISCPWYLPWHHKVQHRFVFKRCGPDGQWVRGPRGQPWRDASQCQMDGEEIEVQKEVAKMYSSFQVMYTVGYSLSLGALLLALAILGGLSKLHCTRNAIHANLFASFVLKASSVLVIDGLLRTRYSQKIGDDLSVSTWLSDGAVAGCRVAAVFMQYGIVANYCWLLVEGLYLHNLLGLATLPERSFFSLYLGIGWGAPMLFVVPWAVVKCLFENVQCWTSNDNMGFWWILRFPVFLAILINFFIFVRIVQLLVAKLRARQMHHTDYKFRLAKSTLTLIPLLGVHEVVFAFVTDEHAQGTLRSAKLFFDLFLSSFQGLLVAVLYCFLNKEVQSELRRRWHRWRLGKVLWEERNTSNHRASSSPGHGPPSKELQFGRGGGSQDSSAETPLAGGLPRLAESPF
Description: Assay (I)(b): glucagon receptor activation, CRE luciferase reporter gene assay in BHK cells. The class given is cell-based. The following applies: BHK cells expressing human glucagon receptor and CRE luciferase, 3 h incubation; read-out: EC50 hGlucagonR. As for the experimental part:
The purpose of this assay is to test the activity, or potency, of the derivatives of the invention, in vitro. The in vitro potency is the measure of human GLP-1 receptor and/or glucagon receptor activation, respectively, in a whole cell assay.
In vitro potency was determined by measuring the response of human GLP-1 or glucagon receptor, respectively, in a reporter gene assay. The assay was performed in a stably transfected BHK cell line that expressed either the human GLP-1 receptor or the human glucagon receptor and contained the DNA for the cAMP response element (CRE) coupled to a promoter and the gene for firefly luciferase (CRE luciferase). […] When assay incubation was completed, the luciferase substrate (luciferin) was added and the enzyme converted luciferin to oxyluciferin and produced bioluminescence. The luminescence was measured as the readout for the assay.
(b) Glucagon Receptor Activation
The cells used in this assay (clone pLJ6′-4-25) were BHK cells with BHK570 as a parent cell line expressing the CRE luciferase gene (clone BHK/KZ10-20-48) and were established by further transfection with the human glucagon receptor (clone pLJ6′ in pHZ-1 vector).
The cells were cultured at 5% CO2 in DMEM medium with 10% FBS, 1× GlutaMAX, 1 mg/mL G418, 240 nM MTX (methotrexate) and 1% pen/strep (penicillin/streptomycin). They were aliquoted and stored in liquid nitrogen. Before each assay, an aliquot was taken up and washed three times in PBS before being suspended at the desired concentration in assay buffer. For 96-well plates the suspension was made to give a final concentration of 5×10 EE3 cells/well.
Assay Medium consisted of DMEM w/o phenol red, 10 mM Hepes, lx GlutaMAX, 2% Ovalbumin and 0.2% Pluronic F-68.
Cell stocks were thawed in a 37° C. water bath. Cells were washed three times in PBS. The cells were counted and adjusted to 5×10 EE3 cells/50 μl (1×10 EE5 cells/mL) in Assay Medium. A 50 μl aliquot of cells was transferred to each well in the assay plate.
Stocks of the test compounds and reference compounds were diluted to a concentration of […] in Assay Medium. Compounds were diluted 10-fold to give the following concentrations: […], 2×10 EE-7 M, 2×10 EE-8 M; 2×10 EE-9 M, 2×10 EE-10 M, 2×10 EE-11 M, 2×10 EE-12 M and 2×10 EE-13 M. For each compound a blank assay buffer control was also included.
A 50 μl aliquot of compound or blank was transferred from the dilution plate to the assay plate. Compounds were tested at the following final concentrations: 1×10 EE-6 M, 1×10 EE-7 M, 1×10 EE-8 M; 1×10 EE-9 M, 1×10 EE-10 M, 1×10 EE-11 M and 1×10 EE-12 M and 1×10 EE-13 M.
The assay plate was incubated for 3 h in a 5% CO2 incubator at 37° C. The assay plate was removed from the incubator and allowed to stand at room temperature for 15 min. A 100 μl aliquot of steadylite plus reagent was added to each well of the assay plate (reagent is light sensitive). Each assay plate was covered with aluminum foil to protect it from light and shaken for 30 min at room temperature. Each assay plate was read in a Packard TopCount NXT instrument.
The data from the TopCount instrument was transferred to GraphPad Prism software. The software performed a non-linear regression (log(agonist) vs response-Variable slope (four parameter)). EC50 values were calculated by the software and reported in pM.

*1 amine or outer side, *2 acyl side, *3 side chain or, on linkers, in order; H or OH if unused. Where a SMILES comes first, the peptide text is derived from it. Side-chain parts run from the residue outwards. The star is where a group is joined. γGlu = O=C(O)[C@H](CCC(=O)[*:2])N[*:1]; Desaminohistidyl = O=C(CCc1c[nH]cn1)*

In the data set “physchem”, `CC(=O)N[C@@H](CCC(=O)N[C@@H](CCC(=O)N[C@@H](CCC(=O)N[C@@H](CCC(=O)NCCCC[C@H](NC(=O)[C@H](CC(C)C)NC(=O)[C@H](CC(C)C)NC(=O)[C@H](Cc1c[nH]c2ccccc12)NC(=O)[C@H](CCC(N)=O)NC(=O)[C@@H](NC(=O)[C@H](Cc1ccccc1)NC(=O)[C@H](CCC(=O)O)NC(=O)[C@H](CCC(N)=O)NC(=O)[C@H](C)NC(=O)[C@H](CCCNC(=N)N)NC(=O)[C@H](CCCNC(=N)N)NC(=O)[C@H](CO)NC(=O)[C@H](CCC(=O)O)NC(=O)[C@H](CC(C)C)NC(=O)[C@H](Cc1ccc(O)cc1)NC(=O)[C@H](CCCCN)NC(=O)[C@H](CO)NC(=O)[C@H](Cc1ccc(O)cc1)NC(=O)[C@H](CC(=O)O)NC(=O)[C@H](CO)NC(=O)[C@@H](NC(=O)[C@H](Cc1ccccc1)NC(=O)[C@@H](NC(=O)CNC(=O)[C@H](Cc1c[nH]cn1)NC(=O)[C@H](CO)NC(=O)CCc1c[nH]cn1)[C@@H](C)O)[C@@H](C)O)C(C)C)C(=O)N[C@H](C(=O)O)[C@@H](C)O)C(=O)O)C(=O)O)C(=O)O)C(=O)O` [Example 14, N^ϵ28-[(4S)-4-[[(4S)-4-[[(4S)-4-[[(4S)-4-acetamido-4-carboxybutanoyl]amino]-4-carboxybutanoyl]amino]-4-carboxybutanoyl]amino]-4-carboxybutanoyl]-[Imp1, His3, Glu15, Glu21, Leu27, Lys28]-Glucagon] (Desaminohistidyl-SHGTFTSDYSKYLESRRAQEFVQWLLK([γGlu-γGlu-γGlu-γGlu-Ac])T-OH) gave a recovery at 250 μM of 98%. For the same compound, the EC50 on human glucagon receptor came to 6 pM.
`CC(=O)N[C@@H](CCC(=O)N[C@@H](CCC(=O)N[C@@H](CCC(=O)N[C@@H](CCC(=O)NCCCC[C@H](NC(=O)[C@H](CO)NC(=O)[C@H](CC(C)C)NC(=O)[C@H](CC(C)C)NC(=O)[C@H](Cc1c[nH]c2ccccc12)NC(=O)[C@H](CCC(N)=O)NC(=O)[C@@H](NC(=O)[C@H](Cc1ccccc1)NC(=O)[C@H](CCC(=O)O)NC(=O)[C@H](CCC(N)=O)NC(=O)[C@H](C)NC(=O)[C@H](CCCNC(=N)N)NC(=O)[C@H](CCCNC(=N)N)NC(=O)[C@H](CO)NC(=O)[C@H](CCC(=O)O)NC(=O)[C@H](CC(C)C)NC(=O)[C@H](Cc1ccc(O)cc1)NC(=O)[C@H](CCCCN)NC(=O)[C@H](CO)NC(=O)[C@H](Cc1ccc(O)cc1)NC(=O)[C@H](CC(=O)O)NC(=O)[C@H](CO)NC(=O)[C@@H](NC(=O)[C@H](Cc1ccccc1)NC(=O)[C@@H](NC(=O)CNC(=O)[C@H](Cc1c[nH]cn1)NC(=O)[C@H](CO)NC(=O)CCc1c[nH]cn1)[C@@H](C)O)[C@@H](C)O)C(C)C)C(=O)O)C(=O)O)C(=O)O)C(=O)O)C(=O)O` [Example 15, N^ϵ29-[(4S)-4-[[(4S)-4-[[(4S)-4-[[(4S)-4-acetamido-4-carboxybutanoyl]amino]-4-carboxybutanoyl]amino]-4-carboxybutanoyl]amino]-4-carboxybutanoyl]-[Imp1, His3, Glu15, Glu21, Leu27, Ser28, Lys29]-Glucagon] (Desaminohistidyl-SHGTFTSDYSKYLESRRAQEFVQWLLSK([γGlu-γGlu-γGlu-γGlu-Ac])-OH) yielded a recovery at 250 μM in “physchem” of 88%. Besides, the EC50 at human glucagon receptor is 4 pM.

The values are drawn from US9963496B2, “Stable glucagon analogues and use for treatment of hypoglycaemia” (Novo Nordisk A/S, priority 2014, dated 2018).
